In brackets after ≈: the same amount, converted by molar mass.
Experiments:
[1] = Aqueous solubility of compound in PBS at pH 2; format: physicochemical
[2] = Toxicity in BALB/c mouse assessed as change in body weight at 15 to 30 mg/kg, ip measured every 3 days for 21 days; format: organism-based; settings: in vivo, 504 h, dose 15-30 mg/kg, time 21 day
[3] = biological target: hERG (KCNH2) (Homo sapiens, UniProt Q12809); assay: Inhibition of human ERG at 40 uM relative to control; format: toxicity
[4] = test system: ES-2; assay: Antiproliferative activity against human ES2 cells incubated for 48 hrs by SRB assay; format: functional, cell-based; settings: ES-2, 48 h
[5] = test system: MFC; assay: Antiproliferative activity against MFC cells incubated for 48 hrs by SRB assay; format: functional, cell-based; settings: Mus musculus
[6] = Cmax in ICR mouse at 1 mg/kg, iv; format: ADME, organism-based; design: dose 1 mg/kg, route iv; settings: in vivo
[7] = test system: MKN-45; assay: Induction of apoptosis in human MKN-45 cells assessed as late apoptotic cells at 800 nM incubated for 48 hrs by Annexin V-FITC/PI staining based flow cytometry analysis (reference value: 2.6%); format: functional
[8] = Aqueous solubility of compound in PBS at pH 7.4; format: physicochemical
[9] = Toxicity in BALB/c mouse assessed as change in spleen morphology at 15 to 30 mg/kg, ip measured every 3 days for 21 days by HE staining based assay; format: organism-based; settings: in vivo, 504 h, dose 15-30 mg/kg, time 21 day
[10] = Volume of distribution at steady state in ICR mouse at 1 mg/kg, iv; format: ADME, organism-based; settings: in vivo, read-out: Vdss
[11] = test system: MKN-45; assay: Antitumor activity against human MKN-45 cells xenografted in BALB/c mouse assessed as tumor growth inhibition at 15 mg/kg/day, ip measured every 3 days for 21 days; format: functional; settings: MKN-45, 504 h, time 21 day, read-out: TGI
[12] = test system: AGS; assay: Antiproliferative activity against human AGS cells incubated for 48 hrs by SRB assay; format: functional, cell-based
[13] = test system: SGC-7901; assay: Antiproliferative activity against human SGC-7901 cells incubated for 48 hrs by SRB assay; format: functional, cell-based; settings: SGC-7901, 48 h
[14] = Antiproliferative activity against HAF cells incubated for 48 hrs by SRB assay; format: functional, cell-based; settings: Homo sapiens
[15] = test system: MKN-45; assay: Induction of apoptosis in human MKN-45 cells assessed as late apoptotic cells at 400 nM incubated for 48 hrs by Annexin V-FITC/PI staining based flow cytometry analysis (reference value: 2.6%); format: functional

hERG (KCNH2), sequence (Q12809 whole entry): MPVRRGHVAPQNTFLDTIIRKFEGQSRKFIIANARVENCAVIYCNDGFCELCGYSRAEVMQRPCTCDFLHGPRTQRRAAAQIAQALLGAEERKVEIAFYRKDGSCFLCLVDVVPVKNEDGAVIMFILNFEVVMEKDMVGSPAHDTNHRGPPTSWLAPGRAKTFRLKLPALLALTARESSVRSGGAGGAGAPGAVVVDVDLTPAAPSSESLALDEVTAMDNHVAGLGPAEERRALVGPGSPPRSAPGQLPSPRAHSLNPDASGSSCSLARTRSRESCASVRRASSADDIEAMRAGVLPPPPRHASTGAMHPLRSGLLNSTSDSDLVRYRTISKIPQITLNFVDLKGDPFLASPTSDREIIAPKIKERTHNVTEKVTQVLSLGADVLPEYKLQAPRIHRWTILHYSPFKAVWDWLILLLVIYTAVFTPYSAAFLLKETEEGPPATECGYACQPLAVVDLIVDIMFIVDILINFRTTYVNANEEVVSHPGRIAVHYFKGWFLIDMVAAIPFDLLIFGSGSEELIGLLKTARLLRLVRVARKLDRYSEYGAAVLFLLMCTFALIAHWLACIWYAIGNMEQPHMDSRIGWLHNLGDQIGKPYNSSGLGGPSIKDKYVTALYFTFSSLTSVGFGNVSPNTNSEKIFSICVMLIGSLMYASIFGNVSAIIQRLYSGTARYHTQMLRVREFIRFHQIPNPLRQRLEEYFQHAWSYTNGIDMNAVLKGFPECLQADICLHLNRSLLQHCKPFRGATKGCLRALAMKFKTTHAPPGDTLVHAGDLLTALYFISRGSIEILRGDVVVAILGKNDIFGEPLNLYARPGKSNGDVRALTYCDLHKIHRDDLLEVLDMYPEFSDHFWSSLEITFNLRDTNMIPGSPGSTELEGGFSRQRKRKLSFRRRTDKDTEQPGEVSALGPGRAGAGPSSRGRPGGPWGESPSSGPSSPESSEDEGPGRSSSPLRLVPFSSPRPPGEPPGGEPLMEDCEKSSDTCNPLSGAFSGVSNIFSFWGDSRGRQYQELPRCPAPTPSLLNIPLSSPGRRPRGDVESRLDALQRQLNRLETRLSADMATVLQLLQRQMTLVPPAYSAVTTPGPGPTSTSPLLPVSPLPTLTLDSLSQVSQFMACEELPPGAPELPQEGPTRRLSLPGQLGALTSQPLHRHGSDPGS

solubility [1]: 1310 µM (≈ 582 µg/mL)
Cmax [6]: 1910 ng/mL
solubility [8]: 272 µM (≈ 121 µg/mL)
Vd [10]: 0.377 L/kg
IC50 [12]: 460 nM
IC50 [13]: 440 nM
Compound: CCc1nc(-c2ccc(OC)cc2)n(-c2cccc(C(=O)NCCCCn3nccn3)c2)n1
Activity [2]: Non-Toxic
inhibition at 40 µM [3]: 46.6%
IC50 [4]: 280 nM
IC50 [5]: > 10000 nM
Activity [7]: 40.6%
Activity [9]: Non-Toxic
inhibition in vivo at 15 mg/kg/day [11]: 55.1%
IC50 [14]: > 10000 nM
Activity [15]: 37.6%
